row,SMILES,melting point [°C]
1,COC(=O)c1cc(C)cc(OC)c1C1=CC(=O)c2c(O)cccc2C1=O,140 to 143
2,COCCOc1ccc2ccc(N)nc2n1,176
3,CC(=O)OCC(N=O)C(C)(C)Cl (stereo not given),117 to 119
4,CC(C)Oc1cc(COc2cc(CCC(=O)O)n(C)n2)cc(COc2ccc(Cl)cc2Cl)c1,105 to 106
5,COc1ccc(Cl)cc1C1(F)C(=O)Nc2ccc(C)cc21 (stereo not given),193 to 195
6,N#Cc1ccc(-c2ccccc2F)c(F)c1,78 to 79
7,CCC1(C)CC(NC(=O)C(=O)NC2CC(C)(CC)N(C(C)=O)C(C)(CC)C2C)C(C)C(C)(CC)N1C(C)=O (stereo not given),164
8,CCOC(=O)C1=C(C)Nc2nc(N)nc(N)c2C1c1ccc(Cl)c(Cl)c1 (stereo not given),244
9,CCOC(=O)/C=C(\C)Cl,58 to 60
10,CN(C)CCOc1ccc(N(CCN(C)C)c2nccc(-c3ccncc3)n2)cc1,87 to 91
11,NC(=O)c1cc2c(Oc3ccc(C(F)(F)F)cc3)cnc(Cl)c2s1,175 to 176
12,Cc1c(F)c(F)cc2c(=O)c(C(=O)O)cn(C3CC3)c12,240 to 243
13,CCOC(=O)c1cn(C)nc1Nc1ccc(C(F)(F)F)cc1N,162
14,N#Cc1ncn2c(-c3cccc(C(F)(F)F)c3)ccnc12,168 to 169
15,NC(=S)Nc1cc(Cl)ccc1N1CCOCC1,174 to 175
16,COC(=O)/C=C/c1ccc(N(C)C(C)=O)nc1,94.3
17,CCSc1cccc2c1CC(=O)N2,143 to 144
18,COc1cc(OC)nc(NC(=O)N=NS(=O)(=O)C2N(C)C=CN2C)n1,201 to 203
19,CC(CC(C)(C)C)CP(=O)(O)C1OC(=O)c2ccccc21 (stereo not given),117 to 121
20,CCOc1ccc(C(=O)NC2N(C)C(c3ccc(F)cc3)=NC2(C(F)(F)F)C(F)(F)F)cc1 (stereo not given),115 to 116
21,CN(C)CCOc1ccc2c(c1)[nH]c(=O)c1c3ccccc3oc21,213 to 217
22,CCOC(=O)C(=CNc1ncnc2ccc(N(C(=O)CC(C)(C)C)C(=O)CC(C)(C)C)cc12)C(=O)OCC,100 to 102
23,CNC(=O)N(C)C1=NN(C(=O)C(C)(C)C)C(C)S1 (stereo not given),168 to 169
24,c1cc2c(c(OCC3CO3)c1)CC1OC1C2 (stereo not given),85 to 87
25,CC(=O)N(C)c1ccc2c(c1)C(c1ccccc1F)=NCc1cnc(C)n1-2,217 to 223
26,CCCN1CC(CN2CC(=O)NC2=O)CC2c3cccc4[nH]cc(c34)CC21 (stereo not given),168 to 170
27,COc1ccc(/C=C/C(=O)C#CCO)cc1,68 to 69

# Next, values leading:
row,melting point [°C],SMILES
1,73 to 75,COc1ccc2c(ccn2S(=O)(=O)c2ccccc2)c1
2,105 to 125,COc1ccccc1NC(=O)Nc1nc(Oc2ccc3ccccc3c2)nc(N(CCC(=O)O)Cc2cccc(C)c2)n1
3,179 to 184,O=C1N(C2CCCCC2)CC(CN2CCC(O)(c3ccccc3)CC2)C1(c1ccccc1)c1ccccc1 (stereo not given)
4,208,C=CCn1cc(C(=O)O)c(=O)c2cc(F)c(N3CCN(C)CC3)cc21
5,268 to 269,COc1ccc2c(c1)C(=O)c1nc3ccccc3c(=O)n1-2
6,155 to 156,OCCNC(=S)NC(Cc1cccc2ccccc12)=Nc1ccccc1
7,137 to 138,CCC(Oc1ccccc1)c1nnc(N2C(=O)N(C)CC2O)s1 (stereo not given)
8,72 to 74,CC(=O)Oc1ccc(OCc2ccccc2)cc1CC(Br)CBr (racemic)
9,65 to 67,CCC(C)c1ccc(N(Cc2ccccc2)C(=N)N)cc1 (stereo not given)
10,187 to 202,Nc1cccc(-c2ccc(C3(O)C4CCC3CN(Cc3ccco3)C4)cc2)n1 (stereo not given)
11,214 to 215,N=C(NS(=O)(=O)c1ccc(F)cc1)N1CC(c2ccccc2)C(c2ccc(Cl)cc2)=N1 (stereo not given)
12,129 to 130,Cn1ccc(C(=O)O)c(OCc2ccccc2)c1=O
13,38 to 39,CCC(O)(c1ccccc1)c1cc(C)ccc1C (stereo not given)
14,158 to 160,Nc1ncc(-c2ccccc2)nc1Sc1ccc(Cl)cc1
15,109,Cc1ncc(Cn2c(CC3CCN(Cc4ccccc4)CC3)nc3ccccc32)o1
16,165 to 167,COc1cc(C(=O)N2Cc3ccc(C(=O)NCc4ccccc4C(F)(F)F)n3Cc3ccccc32)ccc1-c1ccccc1C
17,152 to 156,O=C(O)CN1CCN(C(=O)c2cc(C(F)(F)F)cc(C(F)(F)F)c2)[C@H](Cc2c[nH]c3ccccc23)C1
18,58 to 60,CCOC(C)O[C@H]1C(=O)N(C(=O)OCc2ccccc2)[C@H]1c1ccccc1 (stereo not given in full)
19,125,CCOC(=O)N(C)C1CCN(c2nc3ccccc3n2Cc2ccc(F)cc2)CC1
20,153 to 154,O=c1c(O)c(C#Cc2ccccc2)oc2ccccc12
21,146,O=C(Cc1ccccc1)c1cc2c(c(Cl)c1Cl)OC(C(=O)O)C2 (stereo not given)
22,144 to 145,O=C(CCc1ccccc1)N[C@H](Cc1ccc(C(F)(F)F)cc1)[C@@H](O)c1ccc(F)cc1 (racemic)
23,169,OCCNc1ncc(CN2CCN(c3ccccc3)CC2)c2nc(-c3ccco3)nn12

# From a melting point compilation (Tetko et al.; mined from patent text by program, amines drawn as free bases though some values may be those of a salt)
